How the values were obtained:
[1] = tested on: human peripheral blood mononuclear cells (hPBMCs); assay: In vitro IFN-γ secretion in TGF-β-inhibited, anti-CD3/anti-CD28-stimulated hPBMCs (ELISA); assay type: cell-based; settings: treated with anti-CD3 antibodies, anti-CD28 antibodies and TGF-β; stimulated for 72 hours; IFN-γ ELISA of supernatants
Experimental: A 6-well plate was coated with anti-CD3 monoclonal antibodies (OKT3) at 4° C. overnight. Each well of the 6-well plate was suctioned with an antibody solution, and washed using PBS. hPBMCs were plated on the coated 6-well plate. In order to increase the reactivity of hPBMCs, culturing was performed for 5 days under the conditions of 37° C., 5% carbon dioxide humidification incubator. The hPBMCs cultured for 5 days were inoculated in a 96-well plate at a concentration of 1×10^5 cells/well. The hPBMCs inoculated in the 96-well plate were treated with lenvatinib or Compound 1 and the hPBMCs were incubated for 1 hour, then TGF-β was added thereto and the hPBMCs were cultured for 1 hour. […] After 72 hours, the supernatants were recovered and conventional IFN-γ ELISA was performed. The IFN-γ content generated for each group was measured. Data analysis was performed using Prism 5 (GraphPad Software, Inc.), and statistical analysis was performed using One-way ANOVA and Tukey's multiple comparison.

[2] = tested on: WEHI-164 cell lines (Murine sarcoma cells); assay: Sarcoma mouse model (Example 3); assay type: in vivo; settings: Compound 1 50 mg/kg twice a day p.o.
Experimental: (§1) 60 female BALB/C mice, 6-8 weeks old, were purchased from Vital River Laboratories Research Model and Services Company.
Drugs were administered from Day 7 to Day 23 from the WEHI-164 cell line transplantation date.
The difference in tumor volumes during the study period was statistically analyzed using one-tailed t-test, ANOVA and Tukey's multiple comparison test.

[3] = tested on: MBT2 cell lines (Murine bladder cancer cells); assay: Bladder cancer mouse model (Example 5); settings: tumor volume on Day 30 from the cell line inoculation date; responder = tumor volume less than 1/4 of 1,500 mm^3; Compound 1 alone 15 mg/kg twice a day, in combination 50 mg/kg twice a day p.o.; anti-PD-1 antibody 12.5 mg/kg twice a week i.p.
Experimental: C3H/HeN female mice, 7 weeks old, were purchased from OrientBio. 2.5×10^5 MBT2 cell lines (Murine bladder cancer cells) were injected subcutaneously into the right flank of each mouse to transplant a cancer cell line. The MBT2 cell line transplantation date was determined as Day 0, and the tumor volume was measured on Day 6.
A 0.9% physiological saline solution was prepared as a vehicle, and a mixed solution of an anti-PD-1 antibody (BioXCell) and PBS, and a mixed solution of Compound 1 and the vehicle were prepared as study drugs.
The mice selected in Example 5.1 were assigned to a control group, a group in which an anti-PD-1 antibody was administered, a group in which Compound 1 was administered, or a group in which Compound 1 was administered in combination with an anti-PD-1 antibody, respectively. Drugs were administered from Day 6 to Day 28 from the MBT2 cell line transplantation date.
The mouse tumor volume and weight were measured three times a week during the study period after the drug administration. The tumor volume was measured by the same method as the method for measuring the tumor volume in Example 1.1.2.

[4] = tested on: 4T1 cell lines (Murine breast cancer cells); assay: Breast cancer mouse model (Example 4); assay type: in vivo; settings: Day 23 from the cell line inoculation date; Compound 1 50 mg/kg twice a day p.o.; anti-PD-1 or anti-CTLA-4 antibody 10 mg/kg every three days i.p.
Source text: as §1
The difference in tumor volumes was statistically analyzed using ANOVA and Tukey's multiple comparison test.

[5] = tested on: CT26 cell lines (Murine colon cancer cells); assay: Colorectal cancer mouse model (Example 2); assay type: in vivo; settings: Day 26 from the drug administration date; groups without anti-CTLA-4 antibody; Compound 1 50 mg/kg twice a day p.o.; anti-PD-1 antibody 10 mg/kg once every three days i.p.; lenvatinib 10 mg/kg p.o.
Experimental: 170 female BALB/C mice, which were 6-8 weeks old, were purchased from OrientBio, and cancer cell lines were transplanted by subcutaneously injecting 7.5×10^5 CT26 cell lines (Murine colon cancer cells) into the right flank of each mouse.
The mice selected in Example 2.1 were assigned to the groups listed in Table 4 below, and vehicles or drugs were administered, and drug administration was initiated on Day 7 from the cell line inoculation date, and the study was terminated on Day 27 from the drug administration date.
In this case, the mouse tumor volume was calculated by the same method as the tumor volume calculation method of Example 1.1.2.
Tumor volume changes and weight changes for each group were statistically analyzed using Two-way ANOVA test, Bonferroni test, and one-tailed t-test.

[6] = tested on: B16F10 cell lines; assay: Melanoma mouse model, anti-PD-1 antibody and Compound 1 (Example 1.1); assay type: in vivo; settings: Day 15 from the drug administration date; C57BL/6 mice; Compound 1 50 mg/kg twice a day p.o.; anti-PD-1 antibody 10 mg/kg once every three days i.p.
Source text: 40 female C57BL/6 mice, which were 6-8 weeks old, were purchased from OrientBio, and 1×10^6 B16F10 cell lines (KCLB, #80008) were subcutaneously injected into the right flank of each mouse, thereby transplanting the cancer cell lines thereto.
The mice were classified according to the mean and deviation of the tumor volume on Day 9.
A change in tumor volume for each group was statistically analyzed using Two-way ANOVA test.

Structure (SMILES): Cc1cccc(-c2nc3n(c2-c2ccc4ncnn4c2)CCN3)n1.O=P(O)(O)O [Compound 1, 6-(6-(6-methylpyridine-2-yl)-2,3-dihydro-1H-imidazo[1,2-a]imidazol-5-yl)-[1,2,4]triazole[1,5-a]pyridine phosphate]
- secretion of IFNγ in human PBMCs [1]: increased secretion of IFNγ
- complete remission rate of the tumor ([2]; anti-CTLA-4 antibody 10 mg/kg once a week i.p., compared to the vehicle control group): 30%
- tumor volume smaller than the tumor volume of the control group ([2]; Day 16 from the drug administration initiation date, anti-PD-1 antibody 10 mg/kg once a week i.p.): 71%
- Response individual ratio (percent) [3]: 9%
- Response individual ratio (responders/mice) [3]: 1/11
- tumor volume reduced compared to the tumor volume of the control group [4]: 16%
- drop in tumor volume compared to the tumor volume of the control group (vehicle) [5]: 59%
- tumor volume lower than the tumor volume measured in the control group [6]: 44%

Structure (SMILES): COc1cc2nccc(Oc3ccc(NC(=O)NC4CC4)c(Cl)c3)c2cc1C(N)=O [lenvatinib, reference compound]
- secretion of IFNγ in human PBMCs [1]: increased secretion of IFNγ
- drop in tumor volume compared to the tumor volume of the control group (vehicle) [5]: 30%

— patent US20240342166A1, “PHARMACEUTICAL COMPOSITION FOR PREVENTING OR TREATING TUMOR, AND USE THEREOF” (TIUMBIO CO., LTD., priority 2021, published 2024)
